Target: T1, human serum albumin (HSA) (Homo sapiens, UniProt P02768)
T1 construct: gene ALB; mature full-length, 585 residues, 66500 Da, single chain
Experiment: intrinsic fluorescence quenching, double-log plot
Assay type: binding
Details: 20 °C, 0.01 M PBS pH 7.4, 1 μM HSA, 0-18 nM ligand, λex 280 nm
Text: intrinsic fluorescence quenching, double-log plot on human serum albumin (HSA)

T1 sequence (P02768 25-609): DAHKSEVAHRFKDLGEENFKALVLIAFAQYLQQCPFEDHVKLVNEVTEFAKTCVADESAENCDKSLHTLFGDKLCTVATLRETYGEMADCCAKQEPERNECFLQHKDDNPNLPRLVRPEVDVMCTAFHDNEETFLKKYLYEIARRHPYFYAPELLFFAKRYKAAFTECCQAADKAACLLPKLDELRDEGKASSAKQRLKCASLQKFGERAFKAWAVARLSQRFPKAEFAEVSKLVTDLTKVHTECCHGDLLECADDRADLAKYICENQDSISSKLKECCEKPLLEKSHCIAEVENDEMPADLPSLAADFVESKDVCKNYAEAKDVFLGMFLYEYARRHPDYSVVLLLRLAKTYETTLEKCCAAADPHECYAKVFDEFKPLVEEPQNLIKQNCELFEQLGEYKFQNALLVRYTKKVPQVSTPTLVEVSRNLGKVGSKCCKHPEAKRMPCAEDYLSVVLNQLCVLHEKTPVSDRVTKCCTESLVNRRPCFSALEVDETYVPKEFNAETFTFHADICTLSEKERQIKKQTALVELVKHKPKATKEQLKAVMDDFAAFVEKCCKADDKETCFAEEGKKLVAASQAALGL

- Ka (mol.L^-1) ± SD: 7.39 × 10^4 ± 0.174 mol·L^-1
SMILES: C[C@@]12C[C@@]3(O)O[C@@H](O1)[C@]1(COC(=O)c4ccccc4)[C@H]3C[C@@]12O[C@@H]1O[C@H](CO)[C@@H](O)[C@H](O)[C@H]1O [paeoniflorin]

Reference: publication PMC6017552, “Interaction between Saikosaponin D, Paeoniflorin, and Human Serum Albumin” (Molecules : A Journal of Synthetic Chemistry and Natural …, 2018)
